Measurements as given in patent US20120039844A1, “COMPOSITION AND USE OF N-ALPHA-METHYLHISTAMINE DIHYDROCHLORIDE FOR THE REDUCTION OF OXYGEN RADICAL FORMATION” (priority 2009, published 2012).

Columns and labels:
B16 melanoma cells = test: i.v. injected B16 melanoma in mice (lung tumor weight, pulmonary metastatic foci); type: in vivo; details: for tumor weight (wet lung weight at day 14) vs control mice: 24 hours before tumor cell inoculation, FIG. 4
Experimental: The anti-tumor properties of N-α-MH on i.v. injected B16 melanoma cells in mice were evaluated. One of N-α-MH, HDC, and a positive control were administered to the mice 24 hours before tumor cell inoculation as described by Hellstrand et al., J. Immunol., vol. 145, pp 4365-4370. Macroscopically visible pulmonary metastatic foci were counted fourteen days after the tumor cell inoculation. The tumor weight is the wet weight at day 14 of lungs from mice injected with tumor cells on day 0 as described by Hellstrand et al., J. Immunol., vol. 145, pp 4365-4370.

[1] = in the blood; cited from earlier work
[2] = test system: human mononuclear phagocytes; test: fMLF-induced oxygen radical formation (respiratory burst) in mononuclear phagocytes; type: cell-based; details: FIG. 1
NK cells [3] = test: CD69 expression on NK cells exposed to IL-2; type: cell-based; details: with human recombinant IL-2 50 U/ml, overnight; FIG. 3
Experimental: Three separate experiments were performed as described above with the addition of human recombinant IL-2 (50 U/ml) during the overnight incubation. The experiments were initiated with the aim at clarifying whether N-α-MH synergizes with IL-2 to activate NK cells in a fashion similar to HDC. The activation of NK cells by IL-2 was measured as the capacity of these cells to express the cell surface activation antigen CD69 (See, generally Hellstrand et al. JI 1994).

H2 receptor = H2 receptor (Homo sapiens, UniProt P25021); details: Saitoh et al., Gut 2002; cited from earlier work
H2 receptor, sequence (P25021 whole entry): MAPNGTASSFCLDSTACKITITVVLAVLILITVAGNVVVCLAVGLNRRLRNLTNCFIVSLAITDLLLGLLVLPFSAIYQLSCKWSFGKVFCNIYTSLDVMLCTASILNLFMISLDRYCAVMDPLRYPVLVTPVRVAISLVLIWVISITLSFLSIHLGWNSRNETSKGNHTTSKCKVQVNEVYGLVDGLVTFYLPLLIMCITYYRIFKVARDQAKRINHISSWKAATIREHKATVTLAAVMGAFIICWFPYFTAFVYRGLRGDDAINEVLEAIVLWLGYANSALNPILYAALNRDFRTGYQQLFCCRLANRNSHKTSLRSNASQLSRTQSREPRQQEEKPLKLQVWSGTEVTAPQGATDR

H1 receptors = H1 receptors (Homo sapiens, UniProt P35367); details: cited from earlier work
H1 receptors, sequence (P35367 whole entry): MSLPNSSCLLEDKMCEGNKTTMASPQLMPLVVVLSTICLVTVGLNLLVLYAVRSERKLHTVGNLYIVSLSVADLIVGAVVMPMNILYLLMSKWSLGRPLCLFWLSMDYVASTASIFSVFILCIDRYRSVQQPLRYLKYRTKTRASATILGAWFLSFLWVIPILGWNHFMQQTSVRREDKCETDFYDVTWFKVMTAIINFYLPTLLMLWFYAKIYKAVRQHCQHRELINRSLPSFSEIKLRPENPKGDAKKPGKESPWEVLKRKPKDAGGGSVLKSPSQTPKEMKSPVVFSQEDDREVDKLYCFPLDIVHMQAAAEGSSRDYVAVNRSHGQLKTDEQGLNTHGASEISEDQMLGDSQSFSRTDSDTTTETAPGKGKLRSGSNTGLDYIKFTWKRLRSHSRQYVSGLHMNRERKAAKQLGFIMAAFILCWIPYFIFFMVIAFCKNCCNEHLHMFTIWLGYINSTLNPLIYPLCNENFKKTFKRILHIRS

NK cells [4] = test: Protection of NK cells from apoptosis inflicted by mononuclear phagocytes; type: cell-based, human; details: FIG. 2
Experimental: The ability of N-α-MH to protect NK cells from apoptosis inflicted by mononuclear phagocytes was evaluated. Cells were prepared as described by Hellstrand et al., J. Immunol., vol. 153, pp 4940-7, and mixtures of mononuclear phagocytes and NK cells were incubated overnight with HDC or N-α-MH at indicated final concentrations in 96-well microplates. Thereafter, cells were recovered and NK cells were analyzed for apoptosis (forward and side scatter) as described in Betten et al., J. Clin. Invest. Vol. 108, pp 1221-8 (hereby incorporated by reference in its entirety). FIG. 2 plots the results of six similar experiments.

SMILES	tumor weight (wet lung weight at day 14) vs control mice (B16 melanoma cells; 50 mg/kg)	half life [1]	potency relative to HDC in reducing tumor weight in vivo (B16 melanoma cells; 5 mg/kg N-α-MH equal to 50 mg/kg histamine)	tumor weight (wet lung weight at day 14) vs control mice (B16 melanoma cells; 5 mg/kg)	extent of tumor reduction (lung metastases) compared with HDC at 50 mg/kg (B16 melanoma cells; 5 mg/kg, 14 days after inoculation, FIG. 5)	number of melanoma lung metastases vs control mice (B16 melanoma cells; 50 mg/kg, 14 days after inoculation, FIG. 5)	potency relative to HDC in reducing melanoma metastasis in vivo (B16 melanoma cells; FIG. 5)	potency relative to HDC in reducing tumor formation in vivo (B16 melanoma cells; mouse, in vivo)	inhibition of oxygen radical production ([2]; 5 min preincubation, then fMLF)	maximal response in terms of oxygen radical inhibition, compared with HDC ([2]; in vitro)	expression of CD69 on NK cells (NK cells [3])	potency in stimulating cAMP production via the H2 receptor, compared with histamine (H2 receptor)	activity at H1 receptors (H1 receptors)	EC50 (NK cells [4]; Homo sapiens, overnight incubation with mononuclear phagocytes, six experiments, read-out: ED50 for protection of NK cells)	protection of NK cells from apoptosis, compared with HDC (NK cells [4]; in vitro)
Cl.Cl.NCCc1c[nH]cn1 [HDC, histamine dihydrochloride]	significantly reduced tumor weight	five	–	–	–	–	–	–	–	–	–	–	–	–	–
CNCCc1c[nH]cn1 [N-α-MH, N-alpha-methyl-histamine]	significantly reduced tumor weight	–	about 10 times	significantly reduced tumor weight	about equal	significantly less lung metastases than control mice	approximately 10 times	approximately 10 times	potent inhibitor of oxygen radical production	at least comparable to HDC	synergized with IL-2 to induce expression of CD69 on NK cells	significantly more potent than histamine	little or no activity at H1 receptors	2200 nM	equally potent and effective at protecting NK cells from apoptosis as HDC
